Type in all cases: cell-based
For one experiment, the system named is E. coli. Briefly: antibiotic activity (MIC). As to conditions: Escherichia coli. The source says: (§1) Thus, it is possible to achieve an antimicrobial steroid with or without squalamine-like pharmacological activity.
A further experiment relates to C. albicans. The experiment in a line: antibiotic activity (MIC). Particulars: Candida albicans.
Excerpt: as §1

In the next experiment the test system is S. aureus. Briefly: antibiotic activity (MIC). As to conditions: Staphylococcus aureus.
Excerpt: as §1

Another experiment concerns P. aerug. Briefly: antibiotic activity (MIC).
Excerpt: as §1

The subject of experiment [1] is human microvascular cells. Briefly: inhibition of endothelial cell cord formation in vitro. Also: key: +: Inhibition of angiogenesis; -: No inhibition of angiogenesis; Toxic; *: cell rounding @ 10 µg/ml. An excerpt: Endothelial cells have the capacity in vitro to form tubular aggregates resembling capillaries in various early stages of formation. This conversion occurs under relatively specific conditions, in which essential growth factors along with an effective substratum are provided. It has been shown that both the interaction of growth factors with the endothelial cell and its attachment to a substratum activate the NHE. The activation of this exchanger is believed to be required for subsequent morphologic transformation of the endothelial cell into a multicellular tubular structure.
To assess the effect of compounds on the cord-like structures formed by human microvascular cells when plated in the presence of VEGF (Vascular Endothelial Growth Factor) and basic fibroblast growth factor on a collagen matrix, a standard cord formation assay was used.

In brackets after ≈: the same amount, converted by molar mass. Like-named read-outs stand apart in the source and are kept apart here. Some results are limits rather than exact numbers.

This note sets out measurements from patent US5763430A, “Method of treating a viral infection by administering a steroid compound” (priority 1995, dated 1998).

For orientation: MIC means the lowest concentration found to suppress growth. With `C[C@H](CCC(=O)O)[C@H]1CC[C@H]2[C@@H]3C[C@@H](O)[C@H]4C[C@@H](NCCCNCCCCNCCCN)CC[C@]4(C)[C@H]3CC[C@]12C` [Compound 467], the MIC with E. coli (E. coli, read-out: MIC) came to 16 µg/mL (≈ 27.7 µM); in the experiment on C. albicans (C. albicans, read-out: MIC) it was 4 µg/mL (≈ 6.93 µM); in the experiment with S. aureus (S. aureus, read-out: MIC), 16 µg/mL (≈ 27.7 µM); in the experiment on P. aerug (P. aerug, read-out: MIC), 8 µg/mL (≈ 13.9 µM). Further, the “effect on endothelial cord formation” value in experiment [1] (1.0 μg/ml) and in experiment [1] (10.0 μg/ml) was “-” each time.
As for `COC(=O)CC[C@@H](C)[C@H]1CC[C@H]2[C@@H]3[C@H](O)C[C@@H]4C[C@H](NCCCNCCCCN)CC[C@]4(C)[C@H]3CC[C@]12C` [Compound 356], the MIC in the experiment on E. coli (E. coli, read-out: MIC) was 32 to 64 µg/mL (≈ 59.9 to 120 µM); in the experiment on C. albicans (C. albicans, read-out: MIC), 64 µg/mL (≈ 120 µM); in the experiment on S. aureus (S. aureus, read-out: MIC) it was 4 µg/mL (≈ 7.49 µM); in the experiment on P. aerug (P. aerug, read-out: MIC) it was 64 µg/mL (≈ 120 µM).
Turning to `CC(C)C(O)CC[C@@H](C)[C@H]1CC[C@H]2[C@@H]3[C@H](O)C[C@H]4C[C@@H](NCCCNCCCCN(C)C)CC[C@]4(C)[C@H]3CC[C@]12C` (stereo partly drawn) [MSI-1239A], the MIC was 64 µg/mL (≈ 111 µM) in the experiment on E. coli (E. coli, read-out: MIC); 64 µg/mL (≈ 111 µM) in the experiment with C. albicans; 8 to 16 µg/mL (≈ 13.9 to 27.8 µM) in the experiment on S. aureus (S. aureus, read-out: MIC); 128 µg/mL (≈ 222 µM) against P. aerug.
As to `C[C@H](CCC(=O)O)[C@H]1CC[C@H]2[C@@H]3CC[C@@H]4C[C@H](NCCCNCCCCNCCCN)CC[C@]4(C)[C@H]3C[C@H](O)[C@]12C` [Compound 449], the minimal inhibitory concentration (MIC) is 8 to 16 µg/mL (≈ 13.9 to 27.7 µM) with E. coli (E. coli, read-out: MIC); 4 µg/mL (≈ 6.93 µM) with C. albicans (C. albicans, read-out: MIC); 4 µg/mL (≈ 6.93 µM) with S. aureus (S. aureus, read-out: MIC); 4 µg/mL (≈ 6.93 µM) with P. aerug (P. aerug, read-out: MIC). Besides, the “effect on endothelial cord formation” value in experiment [1] (1.0 μg/ml) is given as “-”.
Turning to `COC(=O)CC[C@@H](C)[C@H]1CC[C@H]2[C@@H]3[C@H](O)C[C@@H]4C[C@@H](NCCCNCCCCN)CC[C@]4(C)[C@H]3CC[C@]12C` [Compound 355], the minimum inhibitory concentration (MIC) in the experiment on E. coli (E. coli, read-out: MIC) is 256 µg/mL (≈ 480 µM); with C. albicans (C. albicans, read-out: MIC), 256 µg/mL (≈ 480 µM); with S. aureus (S. aureus, read-out: MIC) it was 64 µg/mL (≈ 120 µM); with P. aerug (P. aerug, read-out: MIC), over 256 µg/mL.
For `CC(C)CCC[C@@H](C)[C@H]1CC[C@H]2[C@@H]3[C@H](O)C[C@H]4C[C@@H](N)CC[C@]4(C)[C@H]3CC[C@]12C` [Compound 1364], the minimum inhibitory concentration (MIC) is over 256 µg/mL in the experiment with E. coli (E. coli, read-out: MIC); 2 µg/mL (≈ 4.95 µM) in the experiment with C. albicans (C. albicans, read-out: MIC); 2 µg/mL (≈ 4.95 µM) in the experiment with S. aureus (S. aureus, read-out: MIC); over 256 µg/mL in the experiment with P. aerug (P. aerug, read-out: MIC).
Consider `CO[C@@H]1[C@H](OC(=O)/C=C/C=C/C=C/C=C/C(=O)O)CC[C@]2(CO2)[C@H]1[C@@]1(C)O[C@@H]1CC=C(C)C` [Fumagillin, reference compound], for which the figures for the “effect on endothelial cord formation” value in experiment [1] (0.1 μg/ml) and in experiment [1] (10.0 μg/ml) were “-” and “+”, respectively.
`CC(C)C(O)CC[C@@H](C)[C@H]1CC[C@H]2[C@@H]3[C@H](O)C[C@H]4C[C@H](NCCCNCCCCN)CC[C@]4(C)[C@H]3CC[C@]12C` (stereo partly drawn) [Compound 387, 3α-(1,5,10-Triazadecyl) cholestan-7α,24.xi.-diol]: the MIC with E. coli (E. coli, read-out: MIC) was 128 µg/mL (≈ 234 µM); with C. albicans (C. albicans, read-out: MIC), 64 µg/mL (≈ 117 µM); in the experiment with S. aureus (S. aureus, read-out: MIC) it was 16 to 32 µg/mL (≈ 29.2 to 58.4 µM); with P. aerug (P. aerug, read-out: MIC) it was 256 µg/mL (≈ 467 µM).
In the case of `CC(C)CCC[C@@H](C)[C@H]1CC[C@H]2[C@@H]3CC[C@H]4C[C@H](NCCCN5CCCCN=C5N)CC[C@]4(C)[C@H]3CC[C@]12C` [Compound 393], the MIC is over 256 µg/mL in the experiment on E. coli; 32 µg/mL (≈ 59.2 µM) in the experiment with C. albicans (C. albicans, read-out: MIC); 3 µg/mL (≈ 5.55 µM) with S. aureus; over 256 µg/mL in the experiment with P. aerug (P. aerug, read-out: MIC).
Regarding `COC(=O)CC[C@@H](C)[C@H]1CC[C@H]2[C@@H]3[C@H](O)C[C@H]4C[C@H](NCCCNCCCCN)CC[C@]4(C)[C@H]3CC[C@]12C` [Compound 394], the MIC was found to be 64 µg/mL (≈ 120 µM) in the experiment on E. coli (E. coli, read-out: MIC); 32 µg/mL (≈ 59.9 µM) with C. albicans (C. albicans, read-out: MIC); 4 µg/mL (≈ 7.49 µM) in the experiment on S. aureus (S. aureus, read-out: MIC); 64 µg/mL (≈ 120 µM) in the experiment with P. aerug (P. aerug, read-out: MIC).
As to `COC(=O)CC[C@@H](C)[C@H]1CC[C@H]2[C@@H]3[C@H](O)C[C@H]4C[C@@H](NCCCNCCCCN)CC[C@]4(C)[C@H]3CC[C@]12C` [Compound 380], the MIC in the experiment on E. coli (E. coli, read-out: MIC) is 32 µg/mL (≈ 59.9 µM); in the experiment with C. albicans (C. albicans, read-out: MIC), 32 µg/mL (≈ 59.9 µM); in the experiment with S. aureus (S. aureus, read-out: MIC), 4 to 8 µg/mL (≈ 7.49 to 15 µM); with P. aerug (P. aerug, read-out: MIC), 64 µg/mL (≈ 120 µM).
Consider `C=C(C)C(=O)CC[C@@H](C)[C@H]1CC[C@H]2[C@@H]3[C@H](O)C[C@H]4C[C@@H](NCCCNCCCCN)CC[C@]4(C)[C@H]3CC[C@]12C` [Compound 1361], for which the MIC in the experiment with E. coli (E. coli, read-out: MIC) was determined as 32 µg/mL (≈ 58.8 µM); with C. albicans (C. albicans, read-out: MIC), 4 µg/mL (≈ 7.35 µM); in the experiment with S. aureus (S. aureus, read-out: MIC), 4 µg/mL (≈ 7.35 µM); in the experiment on P. aerug (P. aerug, read-out: MIC) it was 128 µg/mL (≈ 235 µM).
Take `C[C@H](CCC(=O)O)[C@H]1CC[C@H]2[C@@H]3[C@H](O)C[C@H]4C[C@H](NCCCNCCCCN)CC[C@]4(C)[C@H]3CC[C@]12C` [Compound 382]: the MIC with E. coli (E. coli, read-out: MIC) came to 64 µg/mL (≈ 123 µM); in the experiment on C. albicans (C. albicans, read-out: MIC), 32 µg/mL (≈ 61.6 µM); in the experiment on S. aureus (S. aureus, read-out: MIC) it was 16 µg/mL (≈ 30.8 µM); in the experiment on P. aerug (P. aerug, read-out: MIC) it was 32 µg/mL (≈ 61.6 µM).
For the molecule `C[C@H](CCC(=O)O)[C@H]1CC[C@H]2[C@@H]3[C@H](O)C[C@H]4C[C@@H](NCCCNCCCCNCCCN)CC[C@]4(C)[C@H]3CC[C@]12C` [Compound 397], the MIC was 32 to 64 µg/mL (≈ 55.5 to 111 µM) in the experiment on E. coli (E. coli, read-out: MIC); 32 µg/mL (≈ 55.5 µM) in the experiment with C. albicans (C. albicans, read-out: MIC); 16 µg/mL (≈ 27.7 µM) in the experiment with S. aureus (S. aureus, read-out: MIC); 16 µg/mL (≈ 27.7 µM) in the experiment on P. aerug (P. aerug, read-out: MIC).
